Measurements from PubChem BioAssay (NCI).
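Following 48 hours of exposure in 96-well plates, responses at five concentrations were used to interpolate endpoints linearly. TGI marks complete inhibition of growth.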

Tests used:
Assay in all cases: growth of human tumour cells (NCI), 48 h
RPMI-8226 leukemia = system: RPMI-8226 leukemia
HT29 colon = system: HT29 colon
IGROV1 ovarian = system: IGROV1 ovarian
MCF7 breast = system: MCF7 breast
SF-295 CNS = system: SF-295 CNS
NCI/ADR-RES ovarian = system: NCI/ADR-RES ovarian
HCT-116 colon = system: HCT-116 colon
U251 CNS = system: U251 CNS
BT-549 breast = system: BT-549 breast
OVCAR-4 ovarian = system: OVCAR-4 ovarian
SR leukemia = system: SR leukemia
SF-539 CNS = system: SF-539 CNS
NCI-H226 lung = system: NCI-H226 lung
UACC-257 melanoma = system: UACC-257 melanoma
A498 renal = system: A498 renal
HOP-92 NSCLC = system: HOP-92 NSCLC
HS 578T breast = system: HS 578T breast
OVCAR-8 ovarian = system: OVCAR-8 ovarian
MDA-N = system: MDA-N
NCI-H23 lung = system: NCI-H23 lung
PC-3 prostate = system: PC-3 prostate
SK-OV-3 ovarian = system: SK-OV-3 ovarian
DU-145 prostate = system: DU-145 prostate
HOP-62 NSCLC = system: HOP-62 NSCLC
KM12 colon = system: KM12 colon
MDA-MB-435 = system: MDA-MB-435
SNB-75 CNS = system: SNB-75 CNS
OVCAR-5 ovarian = system: OVCAR-5 ovarian
LOX IMVI melanoma = system: LOX IMVI melanoma
786-0 renal = system: 786-0 renal
HCT-15 colon = system: HCT-15 colon
NCI-H522 lung = system: NCI-H522 lung
SF-268 CNS = system: SF-268 CNS
CAKI-1 renal = system: CAKI-1 renal
A549 NSCLC = system: A549 NSCLC
MALME-3M melanoma = system: MALME-3M melanoma
TK-10 renal = system: TK-10 renal
UO-31 renal = system: UO-31 renal
SN12C renal = system: SN12C renal
COLO 205 colon = system: COLO 205 colon
EKVX NSCLC = system: EKVX NSCLC
ACHN renal = system: ACHN renal
SNB-19 CNS = system: SNB-19 CNS
UACC-62 melanoma = system: UACC-62 melanoma
NCI-H460 lung = system: NCI-H460 lung
M14 melanoma = system: M14 melanoma
RXF 393 renal = system: RXF 393 renal
SK-MEL-28 melanoma = system: SK-MEL-28 melanoma
SK-MEL-2 melanoma = system: SK-MEL-2 melanoma
CCRF-CEM leukemia = system: CCRF-CEM leukemia
MDA-MB-231 breast = system: MDA-MB-231 breast
K-562 leukemia = system: K-562 leukemia
MOLT-4 leukemia = system: MOLT-4 leukemia
HCC-2998 colon = system: HCC-2998 colon
OVCAR-3 ovarian = system: OVCAR-3 ovarian
SW-620 colon = system: SW-620 colon
SK-MEL-5 melanoma = system: SK-MEL-5 melanoma
T-47D breast = system: T-47D breast
M19-MEL melanoma = system: M19-MEL melanoma
HL-60(TB) leukemia = system: HL-60(TB) leukemia
HOP-18 NSCLC = system: HOP-18 NSCLC
DMS 273 small cell lung = system: DMS 273 small cell lung
SNB-78 CNS = system: SNB-78 CNS
LXFL 529 NSCLC = system: LXFL 529 NSCLC
DLD-1 colon = system: DLD-1 colon
DMS 114 small cell lung = system: DMS 114 small cell lung
KM20L2 colon = system: KM20L2 colon

## C=C1C(=O)O[C@H]2C[C@@]3(C)[C@H](O)CCC(=C)[C@@H]3[C@@H](OC(C)=O)[C@H]12
RPMI-8226 leukemia
  TGI: 68.7 µM
HT29 colon
  TGI: 25.9 µM
IGROV1 ovarian
  TGI: 30 µM
MCF7 breast
  TGI: 9.84 µM
SF-295 CNS
  TGI: 40.5 µM
NCI/ADR-RES ovarian
  TGI: 76.8 µM
HCT-116 colon
  TGI: 22.2 µM
U251 CNS
  TGI: > 71.3 µM
BT-549 breast
  TGI: 25 µM
OVCAR-4 ovarian
  TGI: 20.8 µM
SR leukemia
  TGI: > 20 µM
SF-539 CNS
  TGI: 10.2 µM
NCI-H226 lung
  TGI: 49.2 µM
UACC-257 melanoma
  TGI: 34.8 µM
A498 renal
  TGI: 44.2 µM
HOP-92 NSCLC
  TGI: 16 µM
HS 578T breast
  TGI: 38.5 µM
OVCAR-8 ovarian
  TGI: 50.4 µM
MDA-N
  TGI: 20.6 µM
NCI-H23 lung
  TGI: 27.6 µM
PC-3 prostate
  TGI: 37.3 µM
SK-OV-3 ovarian
  TGI: > 83.6 µM
DU-145 prostate
  TGI: 26.6 µM
HOP-62 NSCLC
  TGI: 32.8 µM
KM12 colon
  TGI: 36 µM
MDA-MB-435
  TGI: 44.4 µM
SNB-75 CNS
  TGI: 29.2 µM
OVCAR-5 ovarian
  TGI: 25.3 µM
LOX IMVI melanoma
  TGI: 19.7 µM
786-0 renal
  TGI: 32 µM
HCT-15 colon
  TGI: 7.93 µM
NCI-H522 lung
  TGI: 4.13 µM
SF-268 CNS
  TGI: > 52.2 µM
CAKI-1 renal
  TGI: 3.23 µM
A549 NSCLC
  TGI: 33.7 µM
MALME-3M melanoma
  TGI: 3.52 µM
TK-10 renal
  TGI: 24.1 µM
UO-31 renal
  TGI: 27 µM
SN12C renal
  TGI: 29.5 µM
COLO 205 colon
  TGI: 7.06 µM
EKVX NSCLC
  TGI: 38.1 µM
ACHN renal
  TGI: 12.9 µM
SNB-19 CNS
  TGI: 31.5 µM
UACC-62 melanoma
  TGI: 37.3 µM
NCI-H460 lung
  TGI: 25.7 µM
M14 melanoma
  TGI: 25.2 µM
RXF 393 renal
  TGI: 14.7 µM
SK-MEL-28 melanoma
  TGI: > 65.9 µM
SK-MEL-2 melanoma
  TGI: 37.6 µM
CCRF-CEM leukemia
  TGI: 2.96 µM
MDA-MB-231 breast
  TGI: 36.6 µM
K-562 leukemia
  TGI: > 23.3 µM
MOLT-4 leukemia
  TGI: > 31 µM
HCC-2998 colon
  TGI: 30.3 µM
OVCAR-3 ovarian
  TGI: 26.9 µM
SW-620 colon
  TGI: > 100 µM
SK-MEL-5 melanoma
  TGI: 26.4 µM
T-47D breast
  TGI: 29.5 µM

## CN=C1SC(=Nc2ccc(N(C)C)cc2)N1C
RPMI-8226 leukemia
  TGI: > 100 µM
HT29 colon
  TGI: > 100 µM
IGROV1 ovarian
  TGI: > 100 µM
M19-MEL melanoma
  TGI: > 100 µM
HL-60(TB) leukemia
  TGI: > 100 µM
SF-295 CNS
  TGI: > 100 µM
HCT-116 colon
  TGI: > 100 µM
U251 CNS
  TGI: > 100 µM
HOP-18 NSCLC
  TGI: > 100 µM
OVCAR-4 ovarian
  TGI: > 100 µM
DMS 273 small cell lung
  TGI: > 100 µM
SR leukemia
  TGI: > 100 µM
SF-539 CNS
  TGI: > 100 µM
SNB-78 CNS
  TGI: > 100 µM
NCI-H226 lung
  TGI: > 100 µM
UACC-257 melanoma
  TGI: > 100 µM
A498 renal
  TGI: 91.9 µM
HOP-92 NSCLC
  TGI: 53.5 µM
LXFL 529 NSCLC
  TGI: > 100 µM
OVCAR-8 ovarian
  TGI: > 100 µM
NCI-H23 lung
  TGI: > 100 µM
SK-OV-3 ovarian
  TGI: 67 µM
HOP-62 NSCLC
  TGI: > 100 µM
KM12 colon
  TGI: > 100 µM
SNB-75 CNS
  TGI: 49.1 µM
OVCAR-5 ovarian
  TGI: > 100 µM
LOX IMVI melanoma
  TGI: > 100 µM
786-0 renal
  TGI: > 100 µM
DLD-1 colon
  TGI: > 100 µM
HCT-15 colon
  TGI: > 100 µM
NCI-H522 lung
  TGI: 59.3 µM
SF-268 CNS
  TGI: > 100 µM
A549 NSCLC
  TGI: > 100 µM
MALME-3M melanoma
  TGI: > 100 µM
TK-10 renal
  TGI: > 100 µM
DMS 114 small cell lung
  TGI: 60.3 µM
UO-31 renal
  TGI: > 100 µM
SN12C renal
  TGI: > 100 µM
COLO 205 colon
  TGI: > 100 µM
EKVX NSCLC
  TGI: 72.7 µM
SNB-19 CNS
  TGI: > 100 µM
UACC-62 melanoma
  TGI: > 100 µM
NCI-H460 lung
  TGI: > 100 µM
M14 melanoma
  TGI: > 100 µM
SK-MEL-28 melanoma
  TGI: > 100 µM
SK-MEL-2 melanoma
  TGI: 76.6 µM
CCRF-CEM leukemia
  TGI: > 100 µM
K-562 leukemia
  TGI: > 100 µM
MOLT-4 leukemia
  TGI: > 100 µM
HCC-2998 colon
  TGI: > 100 µM
OVCAR-3 ovarian
  TGI: > 100 µM
SW-620 colon
  TGI: > 100 µM
SK-MEL-5 melanoma
  TGI: > 100 µM

## CC(=O)OC1[C@H]2c3cc4c(cc3CN3CCC(=C[C@@H]1O)C23)OCO4 (stereo partly drawn)
RPMI-8226 leukemia
  TGI: > 100 µM
HT29 colon
  TGI: > 100 µM
IGROV1 ovarian
  TGI: > 100 µM
M19-MEL melanoma
  TGI: > 100 µM
HL-60(TB) leukemia
  TGI: > 100 µM
SF-295 CNS
  TGI: > 100 µM
U251 CNS
  TGI: > 100 µM
DMS 273 small cell lung
  TGI: > 100 µM
SR leukemia
  TGI: > 100 µM
SF-539 CNS
  TGI: > 100 µM
SNB-78 CNS
  TGI: > 100 µM
NCI-H226 lung
  TGI: > 100 µM
UACC-257 melanoma
  TGI: > 100 µM
LXFL 529 NSCLC
  TGI: > 100 µM
OVCAR-8 ovarian
  TGI: > 100 µM
KM20L2 colon
  TGI: > 100 µM
NCI-H23 lung
  TGI: > 100 µM
SK-OV-3 ovarian
  TGI: > 100 µM
HOP-62 NSCLC
  TGI: > 100 µM
KM12 colon
  TGI: > 100 µM
SNB-75 CNS
  TGI: > 100 µM
LOX IMVI melanoma
  TGI: > 100 µM
786-0 renal
  TGI: > 100 µM
DLD-1 colon
  TGI: > 100 µM
HCT-15 colon
  TGI: > 100 µM
NCI-H522 lung
  TGI: > 100 µM
SF-268 CNS
  TGI: > 100 µM
A549 NSCLC
  TGI: > 100 µM
MALME-3M melanoma
  TGI: > 100 µM
TK-10 renal
  TGI: > 100 µM
UO-31 renal
  TGI: > 100 µM
SN12C renal
  TGI: > 100 µM
COLO 205 colon
  TGI: > 100 µM
EKVX NSCLC
  TGI: > 100 µM
ACHN renal
  TGI: > 100 µM
SNB-19 CNS
  TGI: > 100 µM
UACC-62 melanoma
  TGI: > 100 µM
NCI-H460 lung
  TGI: > 100 µM
M14 melanoma
  TGI: > 100 µM
RXF 393 renal
  TGI: > 100 µM
SK-MEL-28 melanoma
  TGI: > 100 µM
CCRF-CEM leukemia
  TGI: > 100 µM
K-562 leukemia
  TGI: > 100 µM
MOLT-4 leukemia
  TGI: > 100 µM
HCC-2998 colon
  TGI: > 100 µM
OVCAR-3 ovarian
  TGI: > 100 µM
SW-620 colon
  TGI: > 100 µM
